“Also recorded” adds a separate entry of the source.
How the values were obtained:
conjunctival cells = assay: Conjunctival and corneal epithelial cell identification (CK8, CK19, CK12 immunofluorescence), stem cell deficiency model; type: in vivo, mice; details: Fosaprepitant 1 mg/mL (FOSA 1)
From the text: Eight-week-old male mice C57BL6/N (Charles River, Calco, Italy) (WT mice, n=18) and Tac1-deficient B6.Cg-Tac1tm1Bbm/J (Jackson Laboratories, Bar Harbor, Me., USA) (TAC1-KO mice, n=18) were used in all experiments. TAC1-KO mice are homozygous null for the Tac1 gene. […] The corneal thickness and transparency as well as the corneal nerve length are similar to C57BL/6 mice [Barbariga M, Rabiolo A, Fonteyne P, Bignami F, Rama P, Ferrari G. The effect of aging on nerve morphology and substance P expression in mouse and human corneas. Investig Ophthalmol Vis Sci 2018; 59:5329-35. https://doi.org/10.1167/iovs.18-24707.]. Each animal was anesthetized with an intraperitoneal injection of tribromoethanol (250 mg/kg) and a topical anesthetic was applied to their ocular surface prior to the surgical procedure. Total disepithelization was performed based on the model previously described [Amirjamshidi H, Milani B Y, Sagha H M, Movahedan A, Shafiq M A, Lavker R M, et al. Limbal fibroblast conditioned media: A non-invasive treatment for limbal stem cell deficiency. Mol Vis 2011; 17:658], using a blunt spatula to scrap the entire corneal epithelium, including the limbus. Then, fluorescein staining was used to confirm complete removal of the corneal epithelium under the blue light of a slit-lamp microscope. After wounding, eyes were treated with ophthalmic moxifloxacin 1 time/day for 1 week to […]. Fourteen days after disepithelization mice were euthanized using carbon dioxide inhalation and subsequent cervical dislocation. Corneas were collected for immunostaining and western blot analysis. […]
The presence of conjunctival epithelial cells was evaluated by immunofluorescence. […] A negative control using only the secondary antibody was used to establish a fluorescence threshold. Then, the fluorescent intensity was quantified in terms of the percentage of positive area (% area) in the epithelium.

stem cell-like cells = assay: Stem cell-like cells detection (BrdU and p63 staining), stem cell deficiency model; type: in vivo, mice; details: Fosaprepitant 1 mg/mL (FOSA 1)
From the text: Eight-week-old male mice C57BL6/N (Charles River, Calco, Italy) (WT mice, n=18) and Tac1-deficient B6.Cg-Tac1tm1Bbm/J (Jackson Laboratories, Bar Harbor, Me., USA) (TAC1-KO mice, n=18) were used in all experiments. TAC1-KO mice are homozygous null for the Tac1 gene. […] The corneal thickness and transparency as well as the corneal nerve length are similar to C57BL/6 mice [Barbariga M, Rabiolo A, Fonteyne P, Bignami F, Rama P, Ferrari G. The effect of aging on nerve morphology and substance P expression in mouse and human corneas. Investig Ophthalmol Vis Sci 2018; 59:5329-35. https://doi.org/10.1167/iovs.18-24707.]. Each animal was anesthetized with an intraperitoneal injection of tribromoethanol (250 mg/kg) and a topical anesthetic was applied to their ocular surface prior to the surgical procedure. Total disepithelization was performed based on the model previously described [Amirjamshidi H, Milani B Y, Sagha H M, Movahedan A, Shafiq M A, Lavker R M, et al. Limbal fibroblast conditioned media: A non-invasive treatment for limbal stem cell deficiency. Mol Vis 2011; 17:658], using a blunt spatula to scrap the entire corneal epithelium, including the limbus. Then, fluorescein staining was used to confirm complete removal of the corneal epithelium under the blue light of a slit-lamp microscope. After wounding, eyes were treated with ophthalmic moxifloxacin 1 time/day for 1 week to […]. Fourteen days after disepithelization mice were euthanized using carbon dioxide inhalation and subsequent cervical dislocation. Corneas were collected for immunostaining and western blot analysis. All experimental protocols were approved by the Animal Care and Use Committee of the Istituto di Ricovero e cura a Carattere Scientifico San Raffaele Scientific Institute, in accordance with the ARVO Statement for the Use of Animals in Ophthalmic and Vision Research.
To evaluate the pharmacological inhibition of Substance P, mice received 10 μL of Fosaprepitant topically (IVEMEND, Merck Sharp & Dohme Ltd., Hoddes-don, UK) in two different concentrations: 0.1 mg/mL (FOSA 0.1, n=5) or 1 mg/mL (FOSA 1, n=5) 4 times/day every 2 hours […]. Control animals received instead 10 μL of vehicle (PBS) (WT, n=5). The treatments started the same day that corneal disepithelization was performed.
Immediately after corneal dispepithelization, animals were intraperitoneally injected with […] (BrdU) (50 ug/g body weight, ab142567, Abcam) twice a day (9 a.m and 4 p.m), for 7 days. […] The images were acquired by epifluorescence microscope (Leica CTR5500; Leica Microsystems, Wetzlar, Germany) (20×) and analyzed with Image J software. A negative control using only the secondary antibody was used to establish a fluorescence threshold. […]

## C[C@@H](O[C@H]1OCCN(Cc2nc(=O)n(P(=O)(O)O)[nH]2)[C@H]1c1ccc(F)cc1)c1cc(C(F)(F)F)cc(C(F)(F)F)c1 [Fosaprepitant, [3-{[(2R,3S)-2-[(1R)-1-[3,5-bis(trifluoromethyl)phenyl]ethoxy]-3-(4-fluorophenyl)morpholin-4-yl]methyl}-5-oxo-2H-1,2,4-triazol-1-yl]phosphonic acid]
Conjunctival cells; p<0.001
  CK12 expression in the corneal epithelium compared to WT: increase
Conjunctival cells; p<0.01
  CK8 conjunctival cells infiltrating the cornea compared to WT: Reduced number; also recorded: reduction
Conjunctival cells; p<0.05
  CK19 conjunctival cells compared to WT: significant decrease; also recorded: reduction
Stem cell-like cells
  p63 content compared to WT: no differences
Stem cell-like cells; p<0.01
  BrdU staining in the corneal epithelium compared to WT: significant increase
  number of stem cell-like cells (epithelial stem cells) compared to WT: increase number
Stem cell-like cells; p<0.05
  percentage of p63/BrdU colocalization compared to WT: increased percentage; also recorded: higher percentage
